Source: patent publication US20220193185A1, “COMBINATION OF SYNTHETIC PEPTIDES WITH AFFINITY TO THE TGF-ß RECEPTOR AND WITH AFFINITY TO THE IL-10 RECEPTOR, PHARMACEUTICAL COMPOSITION AND THEIR USE AS IMMUNOMODULATORS IN THE TREATMENT OF AUTOIMMUNE, INFLAMMATORY OR ALLERGIC DISEASES” (Universidade Federal de Uberlândia, priority 2019, published 2022)
Bridges are numbered along the chain shown (N, C = ends). Where no end group is shown, it is not given here.

How the values were obtained:
IFN signaling pathway = IFN signaling pathway in Jurkat-Dual reporter cells, SEAP production; assay type: cell-based; conditions: after 12, 24 and 48 hours; results depend on concentration
Protocol: (§1) In order to investigate the ability of synthetic peptides with affinity to the Interleukin-10 receptor to interfere in the NFkB, IFN and TLR4 pathways, reporter cell lines were used. To analyze whether the isolated peptides (without activation molecules) could induce any type of activation, the isolated peptides were tested in cell lines during 12, 24 and 48 hours of treatment. […] As an example, FIG. 13A, FIG. 13B, and FIG. 13C show an analysis of NFkB expression after stimulation with the synthesized IL-10 receptor affinity synthetic peptides described herein. Cells were treated for 12, 24 and 48 hours with the synthesized peptides Pep 1-IL10, Pep 2-IL10, Pep 3-IL10 and Pep 4-IL10, at different concentrations, without activating molecules. Luciferase was then measured after 12 hours of treatment (FIG. 13A), 24 hours of treatment (FIG. 13B) and 48 hours of treatment (FIG. 13C). […] TNF-α (200 ng/mL) was used as a positive control.
The most significant results will be described below. […] When cells were pretreated with IFN, although peptides at some concentrations indicated results, they were not statistically sufficient. Therefore, we cannot confirm whether they were able to interfere with pathway activation (FIGS. 17 A, B and C) in an equal or better way than the negative control (rIL-10). In the assays shown by FIGS. 16 (A, B and C) and FIGS. 17 (A, B and C), analysis of IFN expression was performed in Jurkat-Dual reporter cells. In the assays shown by FIGS. 16 A, B and C, cells were treated for 1 hour with peptides with further addition of IFN-α (104 EU/ml). Secreted Embryonic Alkaline Phosphatase (SEAP) production was measured after 12 hours of treatment (FIG. 16A), 24 hours of treatment (FIG. 16 B) and 48 hours of treatment (FIG. 16 C). In the assays shown by FIGS. 17A, B and C, cells were treated for 1 hour with IFN-α (104 EU/ml) with further addition of the peptides. SEAP production was measured after (A) 12 hours of treatment (B), 24 hours of treatment and (C) 48 hours of treatment. IFN-α (104 EU/ml) was used as a positive control and rlL-10 (0.4 ng/ml) as a negative control. *P<0.05.

J774 cell line = assay: cytokine production after treatment of the J774 cell line; assay type: cell-based
Protocol: After 24 hours of treatment, the levels of IL-6, MCP-1 and TNF-α produced were measured.
Decreases were significant compared to cells treated with LPS alone (positive control). *P<0.05; **P<0.005; ***P<0.0005.

[1] = test system: rat basophilic leukemia cells transfected with the human FIϵRI IgE receptor (hRBL); assay: IgE-mediated release in hRBL cells sensitized with serum from patients allergic to birch pollen, Bet v 1; assay type: cell-based; conditions: Pep 1-IL-10 at 1 μM; serum from seven birch pollen allergic donors
Protocol: The effect of IL-10 mimetic peptides on IgE-mediated release was examined using rat basophilic leukemia cells transfected with the human FIϵRI IgE receptor (hRBL). As an example, we selected as an example Pep 1-IL-10 to show the data obtained. The hRBL cells were sensitized with serum from seven patients allergic to birch pollen. Cells were stimulated with the antigen and its interaction with immobilized IgEs caused a release of b-hexosaminidase.
When cells were treated with a composition comprising Pep 1-IL-10 at 1 μM (FIG. 21A) or rIL10 (FIG. 21B), the amount of Bet v 1 needed to induce the same amount of degranulation was higher when compared to cells treated only with Bet vl (P<0.05). Amount of rBet v 1 (ng/mL) required to induce half the release of b-hexosaminidase using serum from seven birch pollen allergic donors after treatment with Pep 1-IL-10 (A) (P<0.05) and rIL10 (B)*P<0.05.

[2] = aggregation behavior in solution by Dynamic Light Scattering (DLS); assay type: physicochemical; conditions: IL-10 mimetic peptides in solution
NFkB pathway = assay: NFkB expression in Jurkat-Dual reporter cells, luciferase (IL-10 mimetic peptides); assay type: cell-based; conditions: for concentrations with statistically significant decrease of NFKB activation: peptide pretreatment 1 hour, then TNF-α 200 ng/ml
Protocol: as §1
The assay was then carried out using TNF-α as activation molecule not only in the control, but after a pretreatment with the synthesized peptides Pep 1-IL10, Pep 2-IL10, Pep 3-IL10 and Pep 4-IL10, at different concentrations. All peptides were able to modulate NFKB activation after 12, 24 and 48 hours, with different results depending on the concentrations used. […] In the assays shown by FIGS. 14 A, B and C, analysis of NFkB expression was performed in Jurkat-Dual reporter cells. Cells were treated for 1 hour with peptides and TNF-α (200 ng/ml) added. Luciferase was measured after 12 hours of treatment (FIG. 14A), 24 hours of treatment (FIG. 14B) and 48 hours of treatment (FIG. 14C).
Another assay was then performed in which cells were pretreated with TNF-α and the synthesized peptides Pep 1-IL10, Pep 2-IL10, Pep 3-IL10 and Pep 4-IL10, at different concentrations, were added later. All peptides were able to modulate NFKB activation after 12, 24 and 48 hours, with different results depending on the concentrations used. The most significant results will be described below. […] After 48 hours of treatment, Pep 1-IL-10 at a concentration of 0.001 μM (P<0.05) was the one that obtained a result with the highest statistical significance in the decrease of NFKB signaling (FIG. 15C). In the assays shown by FIGS. 15 A, B and C, analysis of NFkB expression was performed in Jurkat-Dual reporter cells. Cells were treated for 1 hour with TNF-α (200 ng/ml) and peptides were added. Luciferase was measured after 12 hours of treatment (FIG. 15A), 24 hours of treatment (FIG. 15B) and 48 hours of treatment (FIG. 15C). TNF-α (200 ng/mL) was used as a positive control and rlL-10 (recombinant Interleukin-10) (0.4 ng/mL) as a negative control. *P<0.05; **P<0.005; ***P<0.0005.

Jurkat cells = assay: cytokine secretion in MMA-stimulated Jurkat cells; assay type: cell-based, human
IL-8 gene expression = assay: luciferase reporter under control of the IL-8 promoter in TNF-α stimulated A549 cells; assay type: cell-based, human
Text: First, we tested the ability of the synthesized peptides to recognize TGF^RII on the surface of Jurkat cells, immortalized human T lymphocytes, using ELISA. The recombinant TGFβ (rTGFβ1) was used as a positive control. […] To investigate IL-8 cytokine production, we used an immortalized human lung epithelial cell line (A549), which plays an important role in the first defense line to foreign compounds. […] A mediator release assay, based on rat basophilic leukemia (RBL) cells bearing humanized FIERI receptor, was performed to investigate the effect of the synthesized peptides on IgE-mediated degranulation of basophils in an already sensitized system. This sensitive cell-based assay may help to understand the action of the mimetic peptide in an established allergic microenvironment.

[3] = peptide followed by LPS, 24 hours

Row | Substance | modulation of the activation of the IFN signaling pathway (IFN signaling pathway) | production of IL-10, IFN-g or IL12p70 (J774 cell line; 24 hours of treatment) | production of IL-6, MCP-1 and TNF-α (J774 cell line; peptide followed by LPS for 24 hours) | concentrations that significantly reduced IL-6 levels vs LPS alone (J774 cell line; [3]) | concentrations that significantly reduced MCP-1 levels vs LPS alone (J774 cell line; [3]) | concentrations that significantly reduced TNF-α levels vs LPS alone (J774 cell line; [3]) | cytokine response to peptide alone (J774 cell line; without LPS stimulation, 24 hours) | amount of Bet v 1 needed to induce the same amount of degranulation (half the release of b-hexosaminidase) vs Bet v 1 only [1] | measured hydrodynamic radius [2] | concentration with highest statistical significance in the decrease of NFKB signaling (NFkB pathway; cells pretreated 1 hour with TNF-α 200 ng/ml, peptides added, 48 hours) | concentrations with statistically significant decrease of NFKB activation (NFkB pathway; 12 hours) | concentrations with statistically significant decrease of NFKB activation (NFkB pathway; 24 hours) | concentrations with statistically significant decrease of NFKB activation (NFkB pathway; 48 hours) | induction of NFkB expression by peptides alone (NFkB pathway; without activating molecules, 12, 24 and 48 hours, different concentrations) | IL-10 secretion (Jurkat cells) | TNF-α secretion (Jurkat cells) | IL-8 gene expression (luciferase reporter) (IL-8 gene expression)
1 | Pep 1-IL-10: synthetic peptide with affinity to the Interleukin-10 receptor, SEQ ID 09, with disulfide bridges (HACSAVIKSSCGGGS; disulfide 3-11 (inferred)) | able to modulate the activation of the IFN signaling pathway | No interference | able to decrease | 1 μM, 10 μM and 100 μM | 1 µM and 10 µM | 1 μM, 10 μM and 100 μM | unable to induce any response | higher | 0.82 nm | 0.001 µM | all concentrations tested | all concentrations tested | all concentrations tested | not able to induce any response | – | – | –
2 | rTGFβ: recombinant TGFβ (rTGFβ1) used as a positive control | – | – | – | – | – | – | – | – | – | – | – | – | – | – | increased IL-10 secretion | significantly decreased TNF-α secretion | decreased IL-8 gene expression
